Patent publication US20130078203A1, “CAROTENOID SUNSCREEN” (Promar AS, priority 2010, published 2013)
Several values for one entry are separate records, joined by “and”; a condition that tells them apart may be missing. Equal values may be shown once. Read-outs that look alike come from different tables or passages of the source.

Assays:
[1] = UV/VIS absorption maxima by HPLC with diode array detector; type: physicochemical; conditions: carotenoids dissolved in MeOH, HPLC on Zorbax C18 column
Protocol: LC-MS analyses were performed on an Agilent Ion Trap SL mass spectrometer equipped with an Agilent 1100 series HPLC system. The HPLC system was equipped with a diode array detector (DAD) which recorded UV/VIS spectra in the range from 200-650 nm. Two HPLC protocols were used for the analysis in this work. A high throughput protocol for a fast quantitative determination of known carotenoids was used as follows; the carotenoids were eluted isocratically in MeOH for 5 min. A Zorbax rapid resolution SB RP C18 column with dimension 2.1*30 mm was used for the analyses. Column flow was kept at 0.4 mL/min and 10 μL extract was injected for each run. For detailed qualitative carotenoid separation a Zorbax SB RP C18 with dimension 2.1*150 mm was used. The carotenoids were eluted isocratically in MeOH/Acetonitrile (7:3) for 25 minutes. The column flow was 250 μl/min and 10 or 20 μL sample was injected depending on the concentration.

[2] = In vitro skin model irradiation absorption (integrating sphere transmission spectra, Vitro-skin); type: physicochemical; conditions: for effect of prolonged contact with the skin model on absorption: 10, 15 or 20 minutes on Vitro-skin; for effect of prolonged contact with the skin model on absorption / absorption in the 375-490 nm range: FIGS. 7A-C; for absorption in the 375-490 nm range: Vitro-skin skin model
Protocol: The in vitro method of Springsteen was used (Springsteen et al., 1999, Analytica Chimica Acta, 380, p 155-164). Vitro-skin was used as the skin simulator and Miglyol (Miglyol 812F Neutraloel CHG.040906) or ethyl lactate (Sigma Aldrich) was used as the solvent. The tests were performed with a Varian Cary 300 Conc UV-Visible Spectrophotometer (with an integrating sphere). Sarcinaxanthin (prepared as described in Example 2) and the other carotenoids (Sigma Aldrich) were tested at various concentrations and immediately on application to the skin model or 10-20 minutes post-application.
FIGS. 7A-C show the irradiation absorption achieved by β-carotene (A), sarcinaxanthin (B) and zeaxanthin (C) at the concentrations indicated. The presented graphs also show the effects of the diluent on sarcinaxanthin absorption (FIG. 7B) and the effect of prolonged contact with the skin at 10, 15 or 20 minutes as indicated on the Figures. The results were compared to a conventional SPF 60 sun lotion and the use of diluent alone.

[3] = side-by-side comparison, ethyl lactate as diluent, immediately vs after 15 minutes, FIGS. 8A and B

Lycopene
λmax (nm) in the HPLC eluent [1]: 445 nm and 470 nm and 501 nm

CC1=C(/C=C/C(C)=C/C=C/C(C)=C/C=C/C=C(C)/C=C/C=C(C)/C=C/C2=C(C)C[C@@H](O)CC2(C)C)C(C)(C)C[C@H](O)C1 [zeaxanthin]
stability of absorption after 15 minutes on the skin model [2]: unstable and lose most of their absorption properties in the relevant range | effect of prolonged contact with the skin model on absorption [2]: loss of absorption | absorption in the 375-490 nm range [2]: only modest absorption

C=C1CC[C@H](C/C=C(\C)CO)C(C)(C)[C@@H]1/C=C/C(C)=C/C=C/C(C)=C/C=C/C=C(C)/C=C/C=C(C)/C=C/[C@@H]1C(=C)CC[C@H](C/C=C(\C)CO)C1(C)C [sarcinaxanthin]
λmax (nm) in the HPLC eluent [1]: 414 nm and 438 nm and 467 nm | absorption in the 375-490 nm range [2]: strong absorption | stability of absorption after 15 minutes on the skin model [2, 3]: absorption appears unaffected by the prolonged contact

C=C1CC[C@H](C/C=C(\C)CO)C(C)(C)[C@@H]1/C=C/C(C)=C/C=C/C(C)=C/C=C/C=C(C)/C=C/C=C(C)/C=C/[C@@H]1C(=C)CC[C@H](C/C=C(\C)CO[C@@H]2O[C@H](CO)[C@@H](O)[C@H](O)[C@H]2O)C1(C)C [Sarcinaxanthin monoglucoside]
λmax (nm) in the HPLC eluent [1]: 414 nm and 438 nm and 467 nm

CC1=C(/C=C/C(C)=C/C=C/C(C)=C/C=C/C=C(C)/C=C/C=C(C)/C=C/C2=C(C)CCCC2(C)C)C(C)(C)CCC1 [β-carotene]
effect of prolonged contact with the skin model on absorption [2]: loss of absorption | absorption in the 375-490 nm range [2]: only modest absorption | stability of absorption after 15 minutes on the skin model [2, 3]: unstable and lose most of their absorption properties in the relevant range

CC1=CCC(C/C=C(\C)CO)C(C)(C)C1/C=C/C(C)=C/C=C/C(C)=C/C=C/C=C(C)/C=C/C=C(C)/C=C/C1C(C)=CCC(C/C=C(\C)CO)C1(C)C (stereo not shown) [Decaprenoxanthin]
λmax (nm) in the HPLC eluent [1]: 414 nm and 438 nm and 467 nm

C=C1CCC(C/C=C(\C)CO[C@@H]2O[C@H](CO)[C@@H](O)[C@H](O)[C@H]2O)C(C)(C)C1/C=C/C(C)=C/C=C/C(C)=C/C=C/C=C(C)/C=C/C=C(C)/C=C/C1C(=C)CCC(C/C=C(\C)CO[C@@H]2O[C@H](CO)[C@@H](O)[C@H](O)[C@H]2O)C1(C)C (stereo partly shown) [Sarcinaxanthin diglucoside]
λmax (nm) in the HPLC eluent [1]: 414 nm and 438 nm and 467 nm
